Measured values: ChEMBL document CHEMBL1201861, “Genomics of Drug Sensitity in Cancer screening data, Wellcome Trust Sanger Institute”

What was measured:
Assay in all cases: cells
NCI-H2030 = assay type: functional, cell-based, Homo sapiens; conditions: Homo sapiens, NCI-H2030;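 note: growth inhibition of human NCI-H2030 cells, read out by a cell viability assay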
Description: SANGER: Inhibition of human NCI-H2030 cell growth in a cell viability assay.

NB7 = assay type: functional, cell-based; conditions: Homo sapiens;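 note: growth inhibition of NB7 cells, read out with a cell viability assay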
Description: SANGER: Inhibition of human NB7 cell growth in a cell viability assay.

TCC-SUP = assay type: functional, cell-based, Homo sapiens; conditions: Homo sapiens, TCC-SUP;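 note: growth inhibition of TCC-SUP cells, read out with a cell viability assay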
Description: SANGER: Inhibition of human TCCSUP cell growth in a cell viability assay.

IA-LM = assay type: functional, cell-based, Homo sapiens; conditions: Homo sapiens, IA-LM;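 note: cell viability assay measuring growth inhibition of human IA-LM cells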
Description: SANGER: Inhibition of human IA-LM cell growth in a cell viability assay.

COR-L23 = assay type: functional, cell-based, Homo sapiens; conditions: Homo sapiens, COR-L23;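 note: cell viability assay measuring how strongly compounds suppress growth of COR-L23 cells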
Description: SANGER: Inhibition of human COR-L23 cell growth in a cell viability assay.

HN = assay type: functional, cell-based, Homo sapiens; conditions: Homo sapiens, HN
Description: SANGER: Inhibition of human HN cell growth in a cell viability assay.

RMG-I = assay type: functional, cell-based, Homo sapiens; conditions: Homo sapiens, RMG-I;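 note: growth inhibition of human RMG-I cells, read out with a cell viability assay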
Description: SANGER: Inhibition of human RMG-I cell growth in a cell viability assay.

C-33-A = assay type: functional, cell-based, Homo sapiens; conditions: Homo sapiens, C-33-A;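 note: cell viability assay measuring growth inhibition of C-33-A cells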
Description: SANGER: Inhibition of human C-33-A cell growth in a cell viability assay.

NCI-H2452 = assay type: functional, cell-based, Homo sapiens; conditions: Homo sapiens, NCI-H2452;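 note: growth inhibition of NCI-H2452 cells, read out with a cell viability assay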
Description: SANGER: Inhibition of human NCI-H2452 cell growth in a cell viability assay.

NCI-H2170 = assay type: functional, cell-based, Homo sapiens; conditions: Homo sapiens, NCI-H2170;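 note: cell viability assay measuring growth inhibition of human NCI-H2170 cancer cells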
Description: SANGER: Inhibition of human NCI-H2170 cell growth in a cell viability assay.

COLO-679 = assay type: functional, cell-based, Homo sapiens; conditions: Homo sapiens, COLO-679
Description: SANGER: Inhibition of human COLO-679 cell growth in a cell viability assay.

KYSE-450 = assay type: functional, cell-based; conditions: Homo sapiens;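 note: cell growth inhibition measured by a viability assay in human KYSE-450 cells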
Description: SANGER: Inhibition of human KYSE-450 cell growth in a cell viability assay.

HMV-2 cell line = assay type: functional, cell-based, Homo sapiens; conditions: Homo sapiens, HMV-2;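 note: growth inhibition of HMV-II cells, read out with a cell viability assay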
Description: SANGER: Inhibition of human HMV-II cell growth in a cell viability assay.

MEG-01 = assay type: functional, cell-based; conditions: Homo sapiens;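 note: growth inhibition of MEG-01 cells, read out by a cell viability assay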
Description: SANGER: Inhibition of human MEG-01 cell growth in a cell viability assay.

NCI-H720 = assay type: functional, cell-based; conditions: Homo sapiens;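 note: growth inhibition of human NCI-H720 cells determined by a cell viability assay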
Description: SANGER: Inhibition of human NCI-H720 cell growth in a cell viability assay.

CAL-12T = assay type: functional, cell-based, Homo sapiens; conditions: Homo sapiens, CAL-12T;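 note: growth inhibition of human CAL-12T cells, read out with a cell viability assay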
Description: SANGER: Inhibition of human CAL-12T cell growth in a cell viability assay.

ASPC1 = assay type: functional, cell-based, Homo sapiens; conditions: Homo sapiens, ASPC1;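 note: growth inhibition of AsPC-1 cells, read out with a cell viability assay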
Description: SANGER: Inhibition of human AsPC-1 cell growth in a cell viability assay.

GP5d = assay type: functional, cell-based, Homo sapiens; conditions: Homo sapiens, GP5d;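 note: growth inhibition of human GP5d cells, read out with a cell viability assay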
Description: SANGER: Inhibition of human GP5d cell growth in a cell viability assay.

NCI-H226 = assay type: functional, cell-based, Homo sapiens; conditions: Homo sapiens, NCI-H226;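 note: cell viability read-out used to gauge growth inhibition of the cells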
Description: SANGER: Inhibition of human NCI-H226 cell growth in a cell viability assay.

GOTO = assay type: functional, cell-based, Homo sapiens; conditions: Homo sapiens, GOTO;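 note: growth inhibition of GOTO cells, read out by a cell viability assay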
Description: SANGER: Inhibition of human GOTO cell growth in a cell viability assay.

HGC-27 = assay type: functional, cell-based, Homo sapiens; conditions: Homo sapiens, HGC-27;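 note: growth inhibition of human HGC-27 cells, read out in a cell viability assay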
Description: SANGER: Inhibition of human HGC-27 cell growth in a cell viability assay.

NEC8 = assay type: functional, cell-based, Homo sapiens; conditions: Homo sapiens, NEC8;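 note: growth inhibition of human NEC8 cells, read out by a cell viability assay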
Description: SANGER: Inhibition of human NEC8 cell growth in a cell viability assay.

GI-ME-N = assay type: functional, cell-based, Homo sapiens; conditions: Homo sapiens, GI-ME-N;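 note: growth inhibition of human GI-ME-N cells, read out with a cell viability assay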
Description: SANGER: Inhibition of human GI-ME-N cell growth in a cell viability assay.

DOK = assay type: functional, cell-based, Homo sapiens; conditions: Homo sapiens, DOK;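 note: cell viability assay read-out, values reflect inhibition of cell growth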
Description: SANGER: Inhibition of human DOK cell growth in a cell viability assay.

EW-11 = assay type: functional, cell-based, Homo sapiens; conditions: Homo sapiens, EW-11;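 note: growth inhibition of human EW-11 cells, measured with a cell viability assay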
Description: SANGER: Inhibition of human EW-11 cell growth in a cell viability assay.

NCI-H810 = assay type: functional, cell-based, Homo sapiens; conditions: Homo sapiens, NCI-H810;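 note: IC50 reflects inhibition of cancer cell line growth, read out with a cell viability assay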
Description: SANGER: Inhibition of human NCI-H810 cell growth in a cell viability assay.

CTV-1 = assay type: functional, cell-based; conditions: Homo sapiens;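 note: growth inhibition of the cell line, read out with a cell viability assay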
Description: SANGER: Inhibition of human CTV-1 cell growth in a cell viability assay.

SK-N-FI = assay type: functional, cell-based, Homo sapiens; conditions: Homo sapiens, SK-N-FI;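 note: cell viability assay measuring growth inhibition of human SK-N-FI cells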
Description: SANGER: Inhibition of human SK-N-FI cell growth in a cell viability assay.

RT-112 = assay type: functional, cell-based, Homo sapiens; conditions: Homo sapiens, RT-112
Description: SANGER: Inhibition of human RT-112 cell growth in a cell viability assay.

VA-ES-BJ = assay type: functional, cell-based, Homo sapiens; conditions: Homo sapiens, VA-ES-BJ;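 note: growth inhibition of the VA-ES-BJ cell line, read out by a cell viability assay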
Description: SANGER: Inhibition of human VA-ES-BJ cell growth in a cell viability assay.

U-251 = assay type: functional, cell-based, Homo sapiens; conditions: Homo sapiens, U-251;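 note: growth inhibition of human U-251 cells, read out through a cell viability assay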
Description: SANGER: Inhibition of human U251 cell growth in a cell viability assay.

TE-9 = assay type: functional, cell-based, Homo sapiens; conditions: Homo sapiens, TE-9;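 note: cell growth inhibition, measured with a cell viability readout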
Description: SANGER: Inhibition of human TE-9 cell growth in a cell viability assay.

HuO-3N1 = assay type: functional, cell-based, Homo sapiens; conditions: Homo sapiens, HuO-3N1;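 note: cell viability readout used to measure how strongly compounds suppress proliferation of human HuO-3N1 cells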
Description: SANGER: Inhibition of human HuO-3N1 cell growth in a cell viability assay.

CAL-51 = assay type: functional, cell-based, Homo sapiens; conditions: Homo sapiens, CAL-51;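 note: human CAL-51 cell line, growth inhibition read out via a cell viability assay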
Description: SANGER: Inhibition of human CAL-51 cell growth in a cell viability assay.

HT = assay type: functional, cell-based; conditions: Homo sapiens
Description: SANGER: Inhibition of human HT cell growth in a cell viability assay.

U2OS = assay type: functional, cell-based, Homo sapiens, U-2-OS; conditions: Homo sapiens, U2OS;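 note: growth inhibition of human U-2-OS cells, determined with a cell viability assay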
Description: SANGER: Inhibition of human U-2-OS cell growth in a cell viability assay.

OVCAR-3 = assay type: functional, cell-based, Homo sapiens; conditions: Homo sapiens, OVCAR-3;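 note: growth inhibition of human OVCAR-3 cells, determined by a cell viability assay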
Description: SANGER: Inhibition of human OVCAR-3 cell growth in a cell viability assay.

LU-139 = assay type: functional, cell-based; conditions: Homo sapiens
Description: SANGER: Inhibition of human LU-139 cell growth in a cell viability assay.

GMS-10 = assay type: functional, cell-based, Homo sapiens; conditions: Homo sapiens, GMS-10;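 note: growth inhibition of GMS-10 cells, read out as cell viability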
Description: SANGER: Inhibition of human GMS-10 cell growth in a cell viability assay.

KP-N-YN = assay type: functional, cell-based; conditions: Homo sapiens;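 note: growth inhibition of KP-N-YN cells, read out with a cell viability assay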
Description: SANGER: Inhibition of human KP-N-YN cell growth in a cell viability assay.

PC-14 = assay type: functional, cell-based, Homo sapiens; conditions: Homo sapiens, PC-14;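 note: cell viability assay measuring inhibition of PC-14 cell growth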
Description: SANGER: Inhibition of human PC-14 cell growth in a cell viability assay.

MOLT-4 = assay type: functional, cell-based; conditions: Homo sapiens;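 note: growth inhibition of MOLT-4 cells, determined with a cell viability readout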
Description: SANGER: Inhibition of human MOLT-4 cell growth in a cell viability assay.

SAS = assay type: functional, cell-based, Homo sapiens; conditions: Homo sapiens, SAS;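 note: growth inhibition of SAS cells, read out with a cell viability assay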
Description: SANGER: Inhibition of human SAS cell growth in a cell viability assay.

OS-RC-2 = assay type: functional, cell-based, Homo sapiens; conditions: Homo sapiens, OS-RC-2;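 note: growth inhibition of human OS-RC-2 cells, measured by a cell viability assay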
Description: SANGER: Inhibition of human OS-RC-2 cell growth in a cell viability assay.

LoVo = assay type: functional, cell-based; conditions: Homo sapiens;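 note: growth inhibition of human LoVo cells, read out with a cell viability assay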
Description: SANGER: Inhibition of human LoVo cell growth in a cell viability assay.

HCC1395 = assay type: functional, cell-based, Homo sapiens; conditions: Homo sapiens, HCC1395;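 note: growth inhibition of HCC1395 cells, read out by a cell viability assay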
Description: SANGER: Inhibition of human HCC1395 cell growth in a cell viability assay.

KE-37 = assay type: functional, cell-based; conditions: Homo sapiens;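 note: growth inhibition of KE-37 cells, read out with a cell viability assay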
Description: SANGER: Inhibition of human KE-37 cell growth in a cell viability assay.

NCI-H2052 = assay type: functional, cell-based, Homo sapiens; conditions: Homo sapiens, NCI-H2052;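 note: growth inhibition of NCI-H2052 cells, read out with a cell viability assay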
Description: SANGER: Inhibition of human NCI-H2052 cell growth in a cell viability assay.

DEL = assay type: functional, cell-based; conditions: Homo sapiens;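 note: growth inhibition of the human DEL cell line, read out with a cell viability assay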
Description: SANGER: Inhibition of human DEL cell growth in a cell viability assay.

PSN1 = assay type: functional, cell-based, Homo sapiens; conditions: Homo sapiens, PSN1;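 note: suppression of growth of human PSN1 cells, read out by a cell viability assay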
Description: SANGER: Inhibition of human PSN1 cell growth in a cell viability assay.

DU-145 = assay type: functional, cell-based, Homo sapiens; conditions: Homo sapiens, DU-145
Description: SANGER: Inhibition of human DU-145 cell growth in a cell viability assay.

SK-LMS-1 = assay type: functional, cell-based, Homo sapiens; conditions: Homo sapiens, SK-LMS-1;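 note: growth inhibition of human SK-LMS-1 cells, read out with a cell viability assay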
Description: SANGER: Inhibition of human SK-LMS-1 cell growth in a cell viability assay.

`COc1ccc(C2=N[C@@H](c3ccc(Cl)cc3)[C@@H](c3ccc(Cl)cc3)N2C(=O)N2CCNC(=O)C2)c(OC(C)C)c1` [NUTLIN-3] was tested, and the IC50 (NCI-H2030) was over 8000 nM, the IC50 (NB7) was over 8000 nM and the IC50 (TCC-SUP) was over 8000 nM. It also gave an IC50 (IA-LM) of over 8000 nM, an IC50 (COR-L23) of over 8000 nM and an IC50 (HN) of over 8000 nM. For the same molecule, the IC50 (RMG-I) was over 8000 nM, the IC50 (C-33-A) was over 8000 nM and the IC50 (NCI-H2452) was over 8000 nM. The IC50 (NCI-H2170) was over 8000 nM, the IC50 (COLO-679) was over 8000 nM and the IC50 (KYSE-450) was over 8000 nM. It also gave an IC50 (HMV-2 cell line) of over 8000 nM, an IC50 (MEG-01) of over 8000 nM and an IC50 (NCI-H720) of over 8000 nM. The IC50 (CAL-12T) was over 8000 nM, the IC50 (ASPC1) was over 8000 nM and the IC50 (GP5d) was over 8000 nM. The IC50 (NCI-H226) was over 8000 nM, the IC50 (GOTO) was 3840 nM and the IC50 (HGC-27) was over 8000 nM. For the same molecule, the IC50 (NEC8) was 1220 nM, the IC50 (GI-ME-N) was 6220 nM and the IC50 (DOK) was over 8000 nM. It also gave an IC50 (EW-11) of over 8000 nM, an IC50 (NCI-H810) of over 8000 nM and an IC50 (CTV-1) of 4080 nM. For the same molecule, the IC50 (SK-N-FI) was over 8000 nM, the IC50 (RT-112) was over 8000 nM and the IC50 (VA-ES-BJ) was 2540 nM. For the same molecule, the IC50 (U-251) was over 8000 nM, the IC50 (TE-9) was over 8000 nM and the IC50 (HuO-3N1) was over 8000 nM. For the same molecule, the IC50 (CAL-51) was over 8000 nM, the IC50 (HT) was over 8000 nM and the IC50 (U2OS) was 2910 nM. For the same molecule, the IC50 (OVCAR-3) was over 8000 nM, the IC50 (LU-139) was over 8000 nM and the IC50 (GMS-10) was over 8000 nM. It also gave an IC50 (KP-N-YN) of over 8000 nM, an IC50 (PC-14) of over 8000 nM and an IC50 (MOLT-4) of 2330 nM. For the same molecule, the IC50 (SAS) was over 8000 nM, the IC50 (OS-RC-2) was 5740 nM and the IC50 (LoVo) was 6020 nM. It also gave an IC50 (HCC1395) of over 8000 nM, an IC50 (KE-37) of over 8000 nM and an IC50 (NCI-H2052) of over 8000 nM. The IC50 (DEL) was over 8000 nM, the IC50 (PSN1) was over 8000 nM and the IC50 (DU-145) was over 8000 nM.

`C=CCc1cccc(/C=N/NC(=O)CN2CCN(Cc3ccccc3)CC2)c1O` [PAC-1] gave an IC50 (NCI-H2030) of over 2560 nM, an IC50 (TCC-SUP) of over 2560 nM and an IC50 (IA-LM) of over 2560 nM. The IC50 (COR-L23) was over 2560 nM, the IC50 (HN) was over 2560 nM and the IC50 (SK-LMS-1) was over 2560 nM. For the same molecule, the IC50 (RMG-I) was over 2560 nM, the IC50 (C-33-A) was over 2560 nM and the IC50 (NCI-H2452) was over 2560 nM. The IC50 (NCI-H2170) was over 2560 nM, the IC50 (COLO-679) was 803 nM and the IC50 (KYSE-450) was over 2560 nM. It also gave an IC50 (HMV-2 cell line) of over 2560 nM, an IC50 (MEG-01) of over 2560 nM and an IC50 (NCI-H720) of over 2560 nM. It also gave an IC50 (CAL-12T) of over 2560 nM, an IC50 (ASPC1) of over 2560 nM and an IC50 (GP5d) of over 2560 nM. It also gave an IC50 (NCI-H226) of over 2560 nM, an IC50 (GOTO) of over 2560 nM and an IC50 (HGC-27) of over 2560 nM. For the same molecule, the IC50 (NEC8) was over 2560 nM, the IC50 (GI-ME-N) was over 2560 nM and the IC50 (DOK) was over 2560 nM. For the same molecule, the IC50 (EW-11) was over 2560 nM, the IC50 (NCI-H810) was over 2560 nM and the IC50 (CTV-1) was 1960 nM. The IC50 (SK-N-FI) was over 2560 nM, the IC50 (RT-112) was over 2560 nM and the IC50 (VA-ES-BJ) was over 2560 nM. For the same molecule, the IC50 (U-251) was over 2560 nM, the IC50 (TE-9) was over 2560 nM and the IC50 (HuO-3N1) was over 2560 nM. It also gave an IC50 (CAL-51) of over 2560 nM, an IC50 (HT) of over 2560 nM and an IC50 (U2OS) of over 2560 nM. For the same molecule, the IC50 (OVCAR-3) was over 2560 nM, the IC50 (LU-139) was over 2560 nM and the IC50 (GMS-10) was over 2560 nM. The IC50 (KP-N-YN) was over 2560 nM, the IC50 (PC-14) was over 2560 nM and the IC50 (MOLT-4) was over 2560 nM. It also gave an IC50 (SAS) of over 2560 nM, an IC50 (OS-RC-2) of over 2560 nM and an IC50 (LoVo) of over 2560 nM. It also gave an IC50 (HCC1395) of over 2560 nM, an IC50 (KE-37) of 215 nM and an IC50 (NCI-H2052) of over 2560 nM. For the same molecule, the IC50 (DEL) was over 2560 nM, the IC50 (PSN1) was over 2560 nM and the IC50 (DU-145) was over 2560 nM.

`CN(Cc1cnc2nc(N)nc(N)c2n1)c1ccc(C(=O)N[C@@H](CCC(=O)O)C(=O)O)cc1` [METHOTREXATE] gave an IC50 (NCI-H2030) of over 200 nM, an IC50 (NB7) of over 200 nM and an IC50 (TCC-SUP) of over 200 nM. For the same molecule, the IC50 (IA-LM) was over 200 nM, the IC50 (COR-L23) was 122 nM and the IC50 (HN) was over 200 nM. The IC50 (RMG-I) was over 200 nM, the IC50 (C-33-A) was over 200 nM and the IC50 (NCI-H2452) was over 200 nM. For the same molecule, the IC50 (NCI-H2170) was over 200 nM, the IC50 (COLO-679) was over 200 nM and the IC50 (KYSE-450) was over 200 nM. For the same molecule, the IC50 (HMV-2 cell line) was over 200 nM, the IC50 (MEG-01) was 99.4 nM and the IC50 (CAL-12T) was over 200 nM. For the same molecule, the IC50 (ASPC1) was over 200 nM, the IC50 (GP5d) was over 200 nM and the IC50 (NCI-H226) was over 200 nM. The IC50 (GOTO) was over 200 nM, the IC50 (HGC-27) was over 200 nM and the IC50 (NEC8) was over 200 nM. For the same molecule, the IC50 (GI-ME-N) was 147 nM, the IC50 (DOK) was over 200 nM and the IC50 (EW-11) was over 200 nM. It also gave an IC50 (NCI-H810) of over 200 nM, an IC50 (CTV-1) of 77.1 nM and an IC50 (SK-N-FI) of over 200 nM. The IC50 (RT-112) was 142 nM, the IC50 (VA-ES-BJ) was over 200 nM and the IC50 (U-251) was over 200 nM. The IC50 (TE-9) was over 200 nM, the IC50 (HuO-3N1) was 89.1 nM and the IC50 (CAL-51) was over 200 nM. The IC50 (HT) was 134 nM, the IC50 (U2OS) was 182 nM and the IC50 (OVCAR-3) was over 200 nM. It also gave an IC50 (LU-139) of over 200 nM, an IC50 (GMS-10) of over 200 nM and an IC50 (KP-N-YN) of over 200 nM. The IC50 (PC-14) was over 200 nM, the IC50 (MOLT-4) was 21.2 nM and the IC50 (SAS) was over 200 nM. For the same molecule, the IC50 (OS-RC-2) was over 200 nM, the IC50 (LoVo) was over 200 nM and the IC50 (HCC1395) was over 200 nM. For the same molecule, the IC50 (KE-37) was 15.5 nM, the IC50 (NCI-H2052) was over 200 nM and the IC50 (DEL) was 3.12 nM. The IC50 (PSN1) was over 200 nM and the IC50 (DU-145) was over 200 nM.
